# Columns and labels:
# Alternaria solani = Alternaria solani / tomato / leaf disc (early blight); assay type: in vivo; conditions: foliar, inoculated 2 days after application, vs untreated control
# Protocol: Example B1: Alternaria solani/Tomato/Leaf Disc (Early Blight) Tomato leaf disks cv. Baby are placed on agar in multiwell plates (24-well format) and sprayed with the formulated test compound diluted in water. The leaf disks are inoculated with a spore suspension of the fungus 2 days after application. The inoculated leaf disks are incubated at 23° C./21° C. (day/night) and 80% relative humidity under a light regime of 12 h/12 h (light/dark) in a climate cabinet and the activity of a compound is assessed as percent disease control compared to untreated when an appropriate level of disease damage appears on untreated check disk leaf disks (5-7 days after application).
# Glomerella lagenarium = Glomerella lagenarium (Colletotrichum lagenarium) / liquid culture (anthracnose); assay type: cell-based; conditions: Colletotrichum orbiculare, 72 h, photometrically 3-4 days after application, read-out: control of Glomerella lagenarium
# Protocol: (§1) Example B5: Glomerella Lagenarium (Colletotrichum Lagenarium)/Liquid Culture (Anthracnose) Conidia of the fungus from cryogenic storage are directly mixed into a nutrient broth (potato dextrose broth). After placing a DMSO solution of test compound into a microtiter plate (96-well format), the nutrient broth containing the fungal spores is added. The test plates are incubated at 24° C. and the inhibition of growth is measured photometrically 3-4 days after application.
# [1] = test system: Mycosphaerella graminicola; test: Mycosphaerella graminicola (Septoria tritici) / liquid culture (Septoria blotch); assay type: cell-based; conditions: Zymoseptoria tritici, 96 h, photometrically 4-5 days after application, read-out: control of Mycosphaerella graminicola
# Method in brief: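 Conidia from cryogenic storage mixed into potato dextrose broth, added to test compound in DMSO. Plates incubated at 24° C; growth inhibition read photometrically 4-5 days after application.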
# Monographella nivalis = Monographella nivalis (Microdochium nivale) / liquid culture (foot rot cereals); assay type: cell-based; conditions: 96 h, photometrically 4-5 days after application, read-out: control of Monographella nivalis
# Protocol: as §1, with “B10: Monographella nivalis (Microdochium nivale)/Liquid” for “B5: Glomerella Lagenarium (Colletotrichum Lagenarium)/Liquid”, “(Foot Rot Cereals)” for “(Anthracnose)”, “determined” for “measured”, “4-5” for “3-4”
# Mycosphaerella arachidis = Mycosphaerella arachidis (Cercospora arachidicola) / liquid culture (early leaf spot); assay type: cell-based; conditions: 96 h, photometrically 4-5 days after application, read-out: control of Mycosphaerella arachidis
# Protocol: as §1, with “B11: Mycosphaerella arachidis (Cercospora arachidicola)/Liquid” for “B5: Glomerella Lagenarium (Colletotrichum Lagenarium)/Liquid”, “(Early Leaf Spot)” for “(Anthracnose)”, “determined” for “measured”, “4-5” for “3-4”
SMILES,pest or weed control at 200 ppm (Alternaria solani),inhibition of growth at 20 ppm (Glomerella lagenarium),inhibition of growth at 20 ppm [1],inhibition of growth at 20 ppm (Monographella nivalis),inhibition of growth at 20 ppm (Mycosphaerella arachidis)
"Cn1cc(C2c3ccccc3CN(C(=O)c3cc(-c4ccc(F)cc4F)on3)C2(C)C)cn1 (stereo not shown) [Compound P-105, [5-(2,4-difluorophenyl)isoxazol-3-yl]-[3,3-dimethyl-4-(1-methylpyrazol-4-yl)-1,4-dihydroisoquinolin-2-yl]methanone]",≥ 80%,–,–,–,–
Cc1cc(-c2cc(C(=O)N3Cc4ccccc4C(c4cnn(C)c4C)C3)no2)n(C)n1 (stereo not shown) [Compound P-226],–,≥ 80%,≥ 80%,–,–
"Cn1cc(C2CN(C(=O)c3cc(-c4ccc(F)cc4F)on3)Cc3cc(C(F)(F)F)ccc32)cn1 (stereo not shown) [Compound P-111, [5-(2,4-difluorophenyl)isoxazol-3-yl]-[4-(1-methylpyrazol-4-yl)-7-(trifluoromethyl)-3,4-dihydro-1H-isoquinolin-2-yl]methanone]",–,≥ 80%,≥ 80%,≥ 80%,–
"Cn1cc(C2CN(C(=O)c3cc(-c4ccccc4)on3)Cc3cc(F)ccc32)cn1 (stereo not shown) [Compound P-138, [7-fluoro-4-(1-methylpyrazol-4-yl)-3,4-dihydro-1H-isoquinolin-2-yl]-(5-phenylisoxazol-3-yl)methanone]",–,≥ 80%,≥ 80%,≥ 80%,≥ 80%
"Cc1c(C2CN(C(=O)c3nnc(C4CCC4)s3)Cc3ccccc32)cnn1C (stereo not shown) [Compound P-232, (5-cyclobutyl-1,3,4-thiadiazol-2-yl)-[4-(1,5-dimethylpyrazol-4-yl)-3,4-dihydro-1H-isoquinolin-2-yl]methanone]",–,≥ 80%,≥ 80%,–,≥ 80%
"Cn1cc(C2CN(C(=O)c3cc(-c4ccccc4)on3)Cc3ccccc32)cn1 (stereo not shown) [Compound P-205, [4-(1-methylpyrazol-4-yl)-3,4-dihydro-1H-isoquinolin-2-yl]-(5-phenylisoxazol-3-yl)methanone]",–,≥ 80%,≥ 80%,≥ 80%,≥ 80%
"CC1c2ccc(OCC(F)F)cc2C(C)(c2cnn(C)c2)CN1C(=O)c1cc(-c2ccc(F)cc2F)on1 (stereo not shown) [Compound P-33, [6-(2,2-difluoroethoxy)-1,4-dimethyl-4-(1-methylpyrazol-4-yl)-1,3-dihydroisoquinolin-2-yl]-[5-(2,4-difluorophenyl)isoxazol-3-yl]methanone]",–,–,≥ 80%,≥ 80%,≥ 80%
"Cn1cc(C2CN(C(=O)c3cc(-c4ccccc4)on3)Cc3ccc(F)cc32)cn1 (stereo not shown) [Compound P-139, [6-fluoro-4-(1-methylpyrazol-4-yl)-3,4-dihydro-1H-isoquinolin-2-yl]-(5-phenylisoxazol-3-yl)methanone]",–,≥ 80%,≥ 80%,–,≥ 80%
"Cn1cc(C2CN(C(=O)c3cc(-c4cccn4C)on3)Cc3ccccc32)cn1 (stereo not shown) [Compound P-179, [4-(1-methylpyrazol-4-yl)-3,4-dihydro-1H-isoquinolin-2-yl]-[5-(1-methylpyrrol-2-yl)isoxazol-3-yl]methanone]",–,–,≥ 80%,≥ 80%,≥ 80%
"Cn1cc(C2CN(C(=O)c3ccc(-c4ccc(C(F)(F)F)cc4)o3)Cc3ccccc32)cn1 (stereo not shown) [Compound P-76, [4-(1-methylpyrazol-4-yl)-3,4-dihydro-1H-isoquinolin-2-yl]-[5-[4-(trifluoromethyl)phenyl]-2-furyl]methanone]",–,≥ 80%,–,–,–
"Cc1nn(C)cc1C1CN(C(=O)c2cc(-c3ccc(F)cc3F)on2)Cc2ccccc21 (stereo not shown) [Compound P-121, [5-(2,4-difluorophenyl)isoxazol-3-yl]-[4-(1,3-dimethylpyrazol-4-yl)-3,4-dihydro-1H-isoquinolin-2-yl]methanone]",–,≥ 80%,≥ 80%,≥ 80%,≥ 80%
"CCC1(c2cnn(C)c2)CN(C(=O)c2cc(-c3ccc(F)cc3F)on2)C(C)c2ccccc21 (stereo not shown) [Compound P-222, [5-(2,4-difluorophenyl)isoxazol-3-yl]-[4-ethyl-1-methyl-4-(1-methylpyrazol-4-yl)-1,3-dihydroisoquinolin-2-yl]methanone]",–,–,≥ 80%,≥ 80%,≥ 80%
"Cn1cc(C2CN(C(=O)c3ccc(-c4ccc(F)cc4)o3)Cc3ccccc32)cn1 (stereo not shown) [Compound P-97, [5-(4-fluorophenyl)-2-furyl]-[4-(1-methylpyrazol-4-yl)-3,4-dihydro-1H-isoquinolin-2-yl]methanone]",–,≥ 80%,–,–,–
"Cc1c(C2CN(C(=O)c3cc(C4CCCCC4)on3)Cc3ccccc32)cnn1C (stereo not shown) [Compound P-236, (5-cyclohexylisoxazol-3-yl)-[4-(1,5-dimethylpyrazol-4-yl)-3,4-dihydro-1H-isoquinolin-2-yl]methanone]",–,–,≥ 80%,≥ 80%,≥ 80%
"Cc1cccc(-c2cc(C(=O)N3Cc4ccccc4C(c4cnn(C)c4)C3)no2)c1 (stereo not shown) [Compound P-187, [4-(1-methylpyrazol-4-yl)-3,4-dihydro-1H-isoquinolin-2-yl]-[5-(m-tolyl)isoxazol-3-yl]methanone]",–,≥ 80%,≥ 80%,–,–
"Cn1cc(C2CN(C(=O)c3cc(-c4ccc(F)cc4F)on3)Cc3ccc(Cl)cc32)cn1 (stereo not shown) [Compound P-58, [6-chloro-4-(1-methylpyrazol-4-yl)-3,4-dihydro-1H-isoquinolin-2-yl]-[5-(2,4-difluorophenyl)isoxazol-3-yl]methanone]",–,≥ 80%,≥ 80%,≥ 80%,–
"Cc1c(C2CN(C(=O)c3cc(-c4cccn4C)on3)Cc3ccccc32)cnn1C (stereo not shown) [Compound P-231, [4-(1,5-dimethylpyrazol-4-yl)-3,4-dihydro-1H-isoquinolin-2-yl]-[5-(1-methylpyrrol-2-yl)isoxazol-3-yl]methanone]",–,≥ 80%,≥ 80%,–,≥ 80%
"COc1ccc2c(c1)C(C)(c1cnn(C)c1)CN(C(=O)c1cc(-c3ccccc3)on1)C2C (stereo not shown) [Compound P-39, [6-methoxy-1,4-dimethyl-4-(1-methylpyrazol-4-yl)-1,3-dihydroisoquinolin-2-yl]-(5-phenylisoxazol-3-yl)methanone]",–,–,≥ 80%,≥ 80%,≥ 80%
"Cn1cc(C2CN(C(=O)c3cc(-c4cc(F)ccc4F)on3)Cc3ccccc32)cn1 (stereo not shown) [Compound P-149, [5-(2,5-difluorophenyl)isoxazol-3-yl]-[4-(1-methylpyrazol-4-yl)-3,4-dihydro-1H-isoquinolin-2-yl]methanone]",–,≥ 80%,≥ 80%,≥ 80%,–
"Cc1ccccc1-c1cc(C(=O)N2Cc3ccccc3C(c3cnn(C)c3)C2)no1 (stereo not shown) [Compound P-169, [4-(1-methylpyrazol-4-yl)-3,4-dihydro-1H-isoquinolin-2-yl]-[5-(o-tolyl)isoxazol-3-yl]methanone]",–,≥ 80%,≥ 80%,≥ 80%,–
"COc1ccc2c(c1)CN(C(=O)c1cc(-c3ccccc3)on1)CC2c1cnn(C)c1 (stereo not shown) [Compound P-50, [7-methoxy-4-(1-methylpyrazol-4-yl)-3,4-dihydro-1H-isoquinolin-2-yl]-(5-phenylisoxazol-3-yl)methanone]",–,≥ 80%,≥ 80%,–,≥ 80%
"Cn1cc(C2CN(C(=O)c3cc(-c4cccc(Cl)c4)on3)Cc3ccccc32)cn1 (stereo not shown) [Compound P-190, [5-(3-chlorophenyl)-isoxazol-3-yl]-[4-(1-methylpyrazol-4-yl)-3,4-dihydro-1H-isoquinolin-2-yl]methanone]",–,≥ 80%,≥ 80%,≥ 80%,–
"Cn1cc(C2CN(C(=O)c3cc(-c4ccco4)on3)Cc3ccccc32)cn1 (stereo not shown) [Compound P-188, [5-(2-furyl)isoxazol-3-yl]-[4-(1-methylpyrazol-4-yl)-3,4-dihydro-1H-isoquinolin-2-yl]methanone]",–,≥ 80%,≥ 80%,–,≥ 80%
